Reference: patent publication US9957265B2, “N-(2-cyano heterocyclyl) pyrazolo pyridones as janus kinase inhibitors” (Merck Sharp & Dohme Corp., priority 2013, dated 2018)
Like-named read-outs stand apart in the source and are kept apart here.

Assays:
JAK1 = JAK1 (Homo sapiens (Human), UniProt P23458); test: Jak Biochemical HTRF Assay (JAK1); settings: recombinant GST-tagged catalytic domain, [ATP] 31.8 μM, unit not given (compound concentrations tested given in nM)
Excerpt: Jak Biochemical HTRF Assay Protocol
Subsequent reagent additions employed an Agilent Bravo.

JAK2 = JAK2 (Homo sapiens (Human), UniProt O60674); test: Jak Biochemical HTRF Assay (JAK2)
Sequence of JAK2 (O60674 849-1124): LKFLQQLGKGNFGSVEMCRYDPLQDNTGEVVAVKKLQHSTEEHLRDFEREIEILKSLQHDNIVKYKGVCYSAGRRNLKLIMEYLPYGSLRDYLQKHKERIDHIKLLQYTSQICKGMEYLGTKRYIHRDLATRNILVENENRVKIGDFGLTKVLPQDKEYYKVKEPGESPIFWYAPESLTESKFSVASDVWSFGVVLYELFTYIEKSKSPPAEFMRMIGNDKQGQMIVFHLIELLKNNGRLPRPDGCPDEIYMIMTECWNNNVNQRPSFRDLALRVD

[1] = JAK2 IC50, recombinant GST-tagged catalytic domain, [ATP] 8.5 μM, unit not given (compound concentrations tested given in nM)
[2] = read-out: JAK2 IC50, recombinant GST-tagged catalytic domain, [ATP] 8.5 μM, unit not given (compound concentrations tested given in nM)

Sequence of JAK1 (P23458 875-1153): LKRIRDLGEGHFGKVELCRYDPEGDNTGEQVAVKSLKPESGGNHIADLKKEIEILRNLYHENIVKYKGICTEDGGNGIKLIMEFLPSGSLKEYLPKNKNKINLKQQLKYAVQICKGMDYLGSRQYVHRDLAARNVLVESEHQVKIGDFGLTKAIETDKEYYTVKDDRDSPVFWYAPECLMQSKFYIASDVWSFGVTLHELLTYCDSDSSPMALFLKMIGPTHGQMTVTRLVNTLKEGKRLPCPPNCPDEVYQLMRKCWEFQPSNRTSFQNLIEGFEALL

Structure (SMILES)	IC50 (JAK1) [nM]	IC50 (JAK2; [1]) [nM]	IC50 (JAK2; [2]) [nM]
CC(C)NC(c1ccc(Nc2nn([C@H]3COCC[C@@H]3C#N)c3cc[nH]c(=O)c23)cc1)C(F)(F)F (single isomer, unassigned) [Example 1-52, (3R,4S)-3-{4-oxo-3-[(4-{(1R or 1S)-2,2,2-trifluoro-1-[(1-methylethyl)amino]ethyl}phenyl)amino]-4,5-dihydro-1H-pyrazolo[4,3-c]pyridin-1-yl}tetrahydro-2H-pyran-4-carbonitrile]	0.08	0.11	–
Cc1nc2ccc(Nc3nn([C@@H]4COCC[C@@H]4C#N)c4cc[nH]c(=O)c34)cc2s1 [Example 2-1, (3S,4S)-3-{3-[(2-methyl-1,3-benzothiazol-6-yl)amino]-4-oxo-4,5-dihydro-1H-pyrazolo[4,3-c]pyridin-1-yl}tetrahydro-2H-pyran-4-carbonitrile]	0.03	–	0.89
CC1CCCN1C(c1ccc(Nc2nn([C@H]3COCC[C@@H]3C#N)c3cc[nH]c(=O)c23)cc1)C(F)(F)F (single isomer, unassigned) [Example 1-87, (3R,4S)-3-{4-oxo-3-[(4-{(1S or 1R)-2,2,2-trifluoro-1-[(2R or 2S)-2-methylpyrrolidin-1-yl]ethyl}phenyl)amino]-4,5-dihydro-1H-pyrazolo[4,3-c]pyridin-1-yl}tetrahydro-2H-pyran-4-carbonitrile]	0.15	0.3	–
CC(C)NC(C)(C)c1ccc(Nc2nn([C@H]3COCC[C@@H]3C#N)c3cc[nH]c(=O)c23)cc1 [Example 1-61, (3R,4S)-3-{3-[(4-{1-methyl-1-[(1-methylethyl)amino]ethyl}phenyl)amino]-4-oxo-4,5-dihydro-1H-pyrazolo[4,3-c]pyridin-1-yl}tetrahydro-2H-pyran-4-carbonitrile]	0.3	–	0.3
CC(C)(C)S(=O)(=O)c1ccc(Nc2nn([C@H]3COCCC[C@@H]3C#N)c3cc[nH]c(=O)c23)cc1 (single isomer, unassigned) [Example 1-22, (3R,4S or 3S,4R)-3-(3-{[4-(tert-butylsulfonyl)phenyl]amino}-4-oxo-4,5-dihydro-1H-pyrazolo[4,3-c]pyridin-1-yl)oxepane-4-carbonitrile]	17.3	21.2	–
N#C[C@H]1CCOC[C@@H]1n1nc(Nc2ccc(C(NC3CCC3)C(F)(F)F)cc2)c2c(=O)[nH]ccc21 (single isomer, unassigned) [Example 1-92, (3R,4S)-3-[3-({4-[(1S or 1R)-1-(cyclobutylamino)-2,2,2-trifluoroethyl]phenyl}amino)-4-oxo-4,5-dihydro-1H-pyrazolo[4,3-c]pyridin-1-yl]tetrahydro-2H-pyran-4-carbonitrile]	0.13	0.19	–
CC1(C)CC1NC(c1ccc(Nc2nn([C@H]3COCC[C@@H]3C#N)c3cc[nH]c(=O)c23)cc1)C(F)(F)F (single isomer, unassigned) [Example 1-48, (3R,4S)-3-{3-[(4S or 4R-{1S or 1R-[(2,2-dimethylcyclopropyl)amino]-2,2,2-trifluoroethyl}phenyl)amino]-4-oxo-4,5-dihydro-1H-pyrazolo[4,3-c]pyridin-1-yl}tetrahydro-2H-pyran-4-carbonitrile]	0.65	1.73	–
CN1CCN(C(c2ccc(Nc3nn([C@H]4COCC[C@@H]4C#N)c4cc[nH]c(=O)c34)cc2)C(F)(F)F)CC1 (single isomer, unassigned) [Example 1-37, (3R,4S)-3-[4-oxo-3-({4-[(1S or 1R)-2,2,2-trifluoro-1-(4-methylpiperazin-1-yl)ethyl]phenyl}amino)-4,5-dihydro-1H-pyrazolo[4,3-c]pyridin-1-yl]tetrahydro-2H-pyran-4-carbonitrile]	0.22	0.33	–
N#C[C@H]1CCOC[C@@H]1n1nc(Nc2ccc(C(NC3CCC3)C(F)(F)F)cc2)c2c(=O)[nH]ccc21 (single isomer, unassigned) [Example 1-93, (3R,4S)-3-[3-({4-[(1R or 1S)-1-(cyclobutylamino)-2,2,2-trifluoroethyl]phenyl}amino)-4-oxo-4,5-dihydro-1H-pyrazolo[4,3-c]pyridin-1-yl]tetrahydro-2H-pyran-4-carbonitrile]	0.09	0.11	–
CN(C)C(c1ccc(Nc2nn([C@H]3COCC[C@@H]3C#N)c3cc[nH]c(=O)c23)cc1)C(F)(F)F (single isomer, unassigned) [Example 1-58, (3R,4S)-3-[3-({4-[(1R or 1S)-1-(dimethylamino)-2,2,2-trifluoroethyl]phenyl}amino)-4-oxo-4,5-dihydro-1H-pyrazolo[4,3-c]pyridin-1-yl]tetrahydro-2H-pyran-4-carbonitrile]	0.07	0.13	–
CCN(C(C)(C)C)S(=O)(=O)c1ccc(Nc2nn([C@H]3COCC[C@@H]3C#N)c3cc[nH]c(=O)c23)cc1 [Example 1-79, N-(tert-butyl)-4-((1-((3R,4S)-4-cyanotetrahydro-2H-pyran-3-yl)-4-oxo-4,5-dihydro-1H-pyrazolo[4,3-c]pyridin-3-yl)amino)-N-ethylbenzenesulfonamide]	0.04	–	0.08
C[S+]([O-])c1cc(Nc2nn([C@H]3COCC[C@@H]3C#N)c3cc[nH]c(=O)c23)ccc1F (single isomer, unassigned) [Example 3-3, (3R,4S)-3-(3-((4-fluoro-3-((S or R)-methylsulfinyl)phenyl)amino)-4-oxo-4,5-dihydro-1H-pyrazolo[4,3-c]pyridin-1-yl)tetrahydro-2H-pyran-4-carbonitrile]	1.64	7.44	–
C[S+]([O-])c1cc(Nc2nn([C@H]3COCC[C@@H]3C#N)c3cc[nH]c(=O)c23)ccc1Cl (mixture of isomers) [Example 3-4, (3R,4S)-3-(3-{[4-chloro-3-((S and R)methylsulfinyl)phenyl]amino}-4-oxo-4,5-dihydro-1H-pyrazolo[4,3-c]pyridin-1-yl)tetrahydro-2H-pyran-4-carbonitrile]	1.75	14.6	–
